In patent publication US7572606B1 (Nereus Pharmaceuticals, Inc., priority 2005, dated 2009):

How the values were obtained:
[1] = test system: p21 and p27 in HEK293 cells and HEK293 NF-κB/Luciferase reporter clone; assay: Western blot of cell cycle regulatory proteins; assay type: cell-based, human; conditions: various concentrations, preliminary results
From the text: The ubiquitin-proteasome pathway is an essential proteolytic system involved in cell cycle control by regulating the degradation of cyclins and cyclin-dependent kinase (Cdk) inhibitors such as p21 and p27. Pagano, et al., Science 269:682 (1995), Kisselev, et al., Chem Biol 8:739 (2001), King, et al., Science 274:1652 (1996). Furthermore, p21 and p27 protein levels are increased in the presence of proteasome inhibitors. Fukuchi, et al., Biochim Biophys Acta 1451:206 (1999), Takeuchi, et al., Jpn J Cancer Res 93:774 (2002).
The Western blots presented in FIG. 33 were reprobed using antibodies against p21 and p27 to determine the endogenous level of each protein and anti-Tubulin antibody was used to confirm equal loading of protein.

[2] = test system: 60 human tumor cell lines; assay: NCI screening panel, values over all cell lines; assay type: cell-based
LOX IMVI = assay: NCI 60 cell line screen, sulforhodamine B, 48 h; assay type: cell-based, human; conditions: Melanoma
Protocol: (§1) A detailed description of the screening procedure can be found at hypertext transfer protocol (http://) “dtp.nci.nih.gov/branches/btb/ivclsp.html.”
(§2) In brief, each of the 60 human tumor cell lines were grown in RPMI 1640 medium, supplemented with 5% fetal bovine serum and 2 mM L-glutamine. Cells were plated at their appropriate density in 96-well microtiter plates and incubated at 37° C., 5% CO2, 95% air and 100% relative humidity. […] Cells were incubated for an additional 48 hours and a sulforhodamine B protein assay was used to estimate cell viability or growth.

TK-10 = assay: NCI 60 cell line screen, sulforhodamine B, 48 h; assay type: cell-based, human; conditions: TK-10, Renal Cancer
Protocol: as §1, §2

SF-539 = assay: NCI 60 cell line screen, sulforhodamine B, 48 h; assay type: cell-based, human; conditions: SF-539, CNS Cancer
Protocol: as §1, §2

SN12C = assay: NCI 60 cell line screen, sulforhodamine B, 48 h; assay type: cell-based, human; conditions: Renal Cancer
Protocol: as §1, §2

COLO 205 = assay: NCI 60 cell line screen, sulforhodamine B, 48 h; assay type: cell-based, human; conditions: COLO 205, Colon Cancer
Protocol: as §1, §2

M14 = assay: NCI 60 cell line screen, sulforhodamine B, 48 h; assay type: cell-based, human
Protocol: as §1, §2

EKVX = assay: NCI 60 cell line screen, sulforhodamine B, 48 h; assay type: cell-based, human; conditions: Non-Small Cell Lung Cancer
Protocol: as §1, §2

HT29 = assay: NCI 60 cell line screen, sulforhodamine B, 48 h; assay type: cell-based, human
Protocol: as §1, §2

SNB-75 = assay: NCI 60 cell line screen, sulforhodamine B, 48 h; assay type: cell-based, human; conditions: SNB-75, CNS Cancer
Protocol: as §1, §2

MDA-MB-231/ATCC = assay: NCI 60 cell line screen, sulforhodamine B, 48 h; assay type: cell-based, human; conditions: Breast Cancer
Protocol: as §1, §2

MOLT-4 = assay: NCI 60 cell line screen, sulforhodamine B, 48 h; assay type: cell-based, human
Protocol: as §1, §2

UACC-62 = assay: NCI 60 cell line screen, sulforhodamine B, 48 h; assay type: cell-based, human
Protocol: as §1, §2

BT-459 = assay: NCI 60 cell line screen, sulforhodamine B, 48 h; assay type: cell-based, human
Protocol: as §1, §2

SR = assay: NCI 60 cell line screen, sulforhodamine B, 48 h; assay type: cell-based, human; conditions: Leukemia
Protocol: as §1, §2

A498 = assay: NCI 60 cell line screen, sulforhodamine B, 48 h; assay type: cell-based, human
Protocol: as §1, §2

A549/ATCC = assay: NCI 60 cell line screen, sulforhodamine B, 48 h; assay type: cell-based, human; conditions: Non-Small Cell Lung Cancer
Protocol: as §1, §2

[3] = test system: IκBα in HEK293 cells and NF-κB/Luc 293 reporter clone; assay: Western blot of phosphorylated and total IκBα; assay type: cell-based, human; conditions: 50 and 500 nM, 1 hour pretreatment, TNF-α 30 minutes
Protocol: Endogenous protein levels were assessed in both HEK293 cells and the NF-κB/Luc 293 reporter clone.
Antibodies against total and phosphorylated forms of IκBα were used to determine the endogenous level of each protein and anti-Tubulin antibody was used to confirm equal loading of protein.

[4] = test system: MM.1R and Dox-40 cell lines, patient-derived multiple myeloma cells
LPS-induced plasma TNF = assay: Inhibition of in vivo LPS-induced TNF; design: species or system male Swiss Webster mice; conditions: 0.125 or […] i.v., 30 minutes post-LPS (2 mg/kg i.p.)
Protocol: The following methods outline the protocol design for these studies.
Male Swiss Webster mice (12/group weighing 20-25 g) were injected with LPS (2 mg/kg) by the i.p. route. […] Ninety minutes after LPS injection, the mice were anesthetized with Isoflurane and bled by cardiac puncture to obtain plasma. Remaining blood pellet was then resuspended in 500 μL of PBS to wash away residual serum proteins and centrifuged again. Supernatant was removed and blood pellet frozen for analysis of proteasome inhibition in packed whole blood lysate.
Animals were dosed i.v. with 4 ml/kg. A vehicle control solution was also prepared by making the same 1:160 dilution with 100% DMSO into 10% solutol solution giving a final concentration of 9.375% solutol in water and 0.625% DMSO. Measurements of plasma TNF were performed using the Biosource mTNF Cytoset kit (Biosource Intl., Camarillo, Calif.; catalog # CMC3014) according to manufacturer's instructions. Samples were diluted 1:60 for the assay.

[5] = mean graph midpoint over all cell lines

For `C[C@@]12OC(=O)[C@]1([C@@H](O)[C@@H]1C=CCCC1)NC(=O)[C@@H]2CCCl` [Formula II-16, Salinosporamide A], the “p21 and p27 protein levels” value [1] was “p21 and p27 protein levels were elevated”, the GI50 ([2]; Homo sapiens, read-out: mean GI50 value) was under 10 nM and the “Deka Log10 G150” value ([2]; log units) was 0.00. For the same compound, the “Deka Log10 TGI” value ([2]; log units) was 1.21, the “Range Log10 G150” value ([2]; log units) was 0.00 and the “Range Log10 TGI” value ([2]; log units) was 4.00. The “MG_MID Log10 G150” value [2, 5] was -8.00 Molar, the “MG_MID Log10 TGI” value [2, 5] was -6.79 Molar and the “Log10 G150” value (LOX IMVI) was under -8.00 Molar. The “Log10 TGI” value (LOX IMVI) was -7.87 Molar, the “Log10 G150” value (TK-10) was under -8.00 Molar and the “Log10 TGI” value (TK-10) was -7.13 Molar. For the same compound, the “Log10 G150” value (SF-539) was under -8.00 Molar, the “Log10 TGI” value (SF-539) was under -8.00 Molar and the “Log10 G150” value (SN12C) was under -8.00 Molar. The “Log10 TGI” value (SN12C) was under -8.00 Molar, the “Log10 G150” value (COLO 205) was under -8.00 Molar and the “Log10 TGI” value (COLO 205) was -6.19 Molar. The CC50 (M14; Homo sapiens, M14, read-out: Log10 LC50 (converted)) was 186 nM, the “Log10 G150” value (M14; M14, Melanoma) was under -8.00 Molar and the “Log10 TGI” value (M14; M14, Melanoma) was -7.94 Molar. The “Log10 G150” value (EKVX) was under -8.00 Molar, the “Log10 TGI” value (EKVX) was -5.67 Molar and the “Log10 G150” value (HT29; HT29, Colon Cancer) was under -8.00 Molar. For the same compound, the “Log10 TGI” value (HT29; HT29, Colon Cancer) was -7.37 Molar, the CC50 (HT29; Homo sapiens, HT-29, read-out: Log10 LC50 (converted)) was 38000 nM and the “Log10 G150” value (SNB-75) was under -8.00 Molar. The “Log10 TGI” value (SNB-75) was under -8.00 Molar, the “Log10 G150” value (MDA-MB-231/ATCC) was under -8.00 Molar and the “Log10 TGI” value (MDA-MB-231/ATCC) was under -8.00 Molar. The CC50 (MOLT-4; Homo sapiens, MOLT-4, read-out: Log10 LC50 (converted)) was over 100000 nM, the “Log10 G150” value (MOLT-4; MOLT-4, Leukemia) was under -8.00 Molar and the “Log10 TGI” value (MOLT-4; MOLT-4, Leukemia) was under -8.00 Molar. The CC50 (UACC-62; Homo sapiens, UACC-62, read-out: Log10 LC50 (converted)) was 91.2 nM, the “Log10 G150” value (UACC-62; UACC-62, Melanoma) was under -8.00 Molar and the “Log10 TGI” value (UACC-62; UACC-62, Melanoma) was under -8.00 Molar. For the same compound, the “Log10 G150” value (BT-459; BT-459, Breast Cancer) was under -8.00 Molar, the “Log10 TGI” value (BT-459; BT-459, Breast Cancer) was under -8.00 Molar and the CC50 (BT-459; Homo sapiens, 60 cell, read-out: Log10 LC50 (converted)) was 60.3 nM. The “Log10 G150” value (SR) was under -8.00 Molar, the “Log10 TGI” value (SR) was under -8.00 Molar and the “Log10 G150” value (A498; A498, Renal Cancer) was under -8.00 Molar. The “Log10 TGI” value (A498; A498, Renal Cancer) was under -8.00 Molar, the CC50 (A498; Homo sapiens, A498, read-out: Log10 LC50 (converted)) was 11.5 nM and the “Log10 G150” value (A549/ATCC) was under -8.00 Molar. For the same compound, the “Log10 TGI” value (A549/ATCC) was -4.70 Molar, the “total IκBα and phospho-IκBα level” value [3] was “reduced the degradation of total IκBα but also retained the phospho-IκBα level” and the “activity against drug resistant multiple myeloma” value [4] was “active against MM.1R and Doxorubicin-resistant Dox-40 cell lines”. For the same compound, the “reduction of LPS-induced plasma TNF levels” value (LPS-induced plasma TNF) was “approximately 65%”.
